Test results published in patent US6423689B1, “Peptidyl calcium channel blockers” (Warner-Lambert Company, priority 1997, dated 2002).

Target: T1, N-type Ca2+ channels in IMR-32 cells (Homo sapiens, UniProt Q00975)
T1 construct: host or cells: IMR-32 cells, differentiated with dibutyryl cAMP and bromodeoxyuridine
Test: Inhibition of N-type calcium flux in IMR-32 cells (Indo-1 fluorescence, nitrendipine present)
Type: cell-based
Settings: IMR-32
Summary of the method: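 Differentiated IMR-32 cells (7–13 days) were loaded with 5 μM Indo-1 AM, preincubated with compound for 10 min at 30° C, and depolarized with KCl/CaCl2 stimulation solution, with 5 μM nitrendipine blocking L-channels. Peak-minus-basal 400/490 nm emission ratio was plotted against drug concentration, and IC50 came from four-parameter logistic fits.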

T1 sequence (Q00975 whole entry): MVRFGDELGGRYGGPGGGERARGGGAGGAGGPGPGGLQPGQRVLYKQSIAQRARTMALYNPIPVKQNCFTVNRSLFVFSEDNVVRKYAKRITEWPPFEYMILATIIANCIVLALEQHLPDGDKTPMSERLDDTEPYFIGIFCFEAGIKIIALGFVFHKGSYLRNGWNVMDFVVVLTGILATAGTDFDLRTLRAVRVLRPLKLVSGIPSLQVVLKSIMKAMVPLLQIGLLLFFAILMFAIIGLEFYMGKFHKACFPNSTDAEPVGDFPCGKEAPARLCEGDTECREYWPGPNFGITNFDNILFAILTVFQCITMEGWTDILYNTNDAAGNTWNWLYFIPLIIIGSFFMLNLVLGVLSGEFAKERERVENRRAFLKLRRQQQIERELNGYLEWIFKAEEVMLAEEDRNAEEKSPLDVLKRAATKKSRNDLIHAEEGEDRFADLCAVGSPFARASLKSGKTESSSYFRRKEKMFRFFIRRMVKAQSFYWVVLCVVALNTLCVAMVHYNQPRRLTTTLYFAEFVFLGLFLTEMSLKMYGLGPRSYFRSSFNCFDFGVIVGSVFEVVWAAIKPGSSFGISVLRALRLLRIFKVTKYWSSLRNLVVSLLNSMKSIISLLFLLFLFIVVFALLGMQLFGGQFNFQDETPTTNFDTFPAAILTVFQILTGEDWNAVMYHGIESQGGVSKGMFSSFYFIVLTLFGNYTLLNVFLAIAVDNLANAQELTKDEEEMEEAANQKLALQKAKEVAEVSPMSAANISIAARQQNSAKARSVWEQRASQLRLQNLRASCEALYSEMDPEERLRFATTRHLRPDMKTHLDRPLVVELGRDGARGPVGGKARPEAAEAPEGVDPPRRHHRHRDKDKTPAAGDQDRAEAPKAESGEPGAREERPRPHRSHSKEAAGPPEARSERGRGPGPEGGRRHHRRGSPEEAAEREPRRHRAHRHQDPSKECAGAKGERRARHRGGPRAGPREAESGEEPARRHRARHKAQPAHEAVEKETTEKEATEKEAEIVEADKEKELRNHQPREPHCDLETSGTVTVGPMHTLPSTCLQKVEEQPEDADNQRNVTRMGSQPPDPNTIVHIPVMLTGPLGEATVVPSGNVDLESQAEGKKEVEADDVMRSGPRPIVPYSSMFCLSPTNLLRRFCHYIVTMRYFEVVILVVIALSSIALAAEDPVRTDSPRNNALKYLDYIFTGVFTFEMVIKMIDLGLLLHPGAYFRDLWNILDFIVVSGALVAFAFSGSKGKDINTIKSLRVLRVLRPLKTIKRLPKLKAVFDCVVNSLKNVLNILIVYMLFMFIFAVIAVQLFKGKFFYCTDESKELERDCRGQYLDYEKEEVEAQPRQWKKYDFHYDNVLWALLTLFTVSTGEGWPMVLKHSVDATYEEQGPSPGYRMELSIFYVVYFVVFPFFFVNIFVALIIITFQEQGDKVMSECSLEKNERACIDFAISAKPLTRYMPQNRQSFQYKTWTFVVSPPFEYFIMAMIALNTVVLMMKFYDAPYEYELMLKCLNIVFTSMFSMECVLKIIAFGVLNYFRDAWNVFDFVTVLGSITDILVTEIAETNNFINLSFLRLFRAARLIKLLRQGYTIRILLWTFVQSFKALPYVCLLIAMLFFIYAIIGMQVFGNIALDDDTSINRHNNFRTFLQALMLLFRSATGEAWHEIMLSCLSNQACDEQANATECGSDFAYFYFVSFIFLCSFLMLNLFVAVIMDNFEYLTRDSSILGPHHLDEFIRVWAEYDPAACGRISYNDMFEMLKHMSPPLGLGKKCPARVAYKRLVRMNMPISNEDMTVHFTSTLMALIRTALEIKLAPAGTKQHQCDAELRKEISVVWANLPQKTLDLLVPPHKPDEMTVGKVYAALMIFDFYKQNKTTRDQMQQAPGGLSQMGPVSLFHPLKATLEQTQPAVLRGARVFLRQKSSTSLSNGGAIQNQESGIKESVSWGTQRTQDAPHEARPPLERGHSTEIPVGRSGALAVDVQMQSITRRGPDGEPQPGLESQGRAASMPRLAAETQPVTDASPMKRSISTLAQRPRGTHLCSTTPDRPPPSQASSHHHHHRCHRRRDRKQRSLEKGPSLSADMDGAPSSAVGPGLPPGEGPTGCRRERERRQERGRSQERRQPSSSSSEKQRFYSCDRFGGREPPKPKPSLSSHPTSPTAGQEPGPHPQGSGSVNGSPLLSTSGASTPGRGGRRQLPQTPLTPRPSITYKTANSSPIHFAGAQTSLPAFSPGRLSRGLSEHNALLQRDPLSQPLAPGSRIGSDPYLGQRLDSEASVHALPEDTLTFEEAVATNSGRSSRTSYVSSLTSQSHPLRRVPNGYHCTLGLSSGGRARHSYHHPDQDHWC
T1 sequence (P54289 25-956 partner limits assumed): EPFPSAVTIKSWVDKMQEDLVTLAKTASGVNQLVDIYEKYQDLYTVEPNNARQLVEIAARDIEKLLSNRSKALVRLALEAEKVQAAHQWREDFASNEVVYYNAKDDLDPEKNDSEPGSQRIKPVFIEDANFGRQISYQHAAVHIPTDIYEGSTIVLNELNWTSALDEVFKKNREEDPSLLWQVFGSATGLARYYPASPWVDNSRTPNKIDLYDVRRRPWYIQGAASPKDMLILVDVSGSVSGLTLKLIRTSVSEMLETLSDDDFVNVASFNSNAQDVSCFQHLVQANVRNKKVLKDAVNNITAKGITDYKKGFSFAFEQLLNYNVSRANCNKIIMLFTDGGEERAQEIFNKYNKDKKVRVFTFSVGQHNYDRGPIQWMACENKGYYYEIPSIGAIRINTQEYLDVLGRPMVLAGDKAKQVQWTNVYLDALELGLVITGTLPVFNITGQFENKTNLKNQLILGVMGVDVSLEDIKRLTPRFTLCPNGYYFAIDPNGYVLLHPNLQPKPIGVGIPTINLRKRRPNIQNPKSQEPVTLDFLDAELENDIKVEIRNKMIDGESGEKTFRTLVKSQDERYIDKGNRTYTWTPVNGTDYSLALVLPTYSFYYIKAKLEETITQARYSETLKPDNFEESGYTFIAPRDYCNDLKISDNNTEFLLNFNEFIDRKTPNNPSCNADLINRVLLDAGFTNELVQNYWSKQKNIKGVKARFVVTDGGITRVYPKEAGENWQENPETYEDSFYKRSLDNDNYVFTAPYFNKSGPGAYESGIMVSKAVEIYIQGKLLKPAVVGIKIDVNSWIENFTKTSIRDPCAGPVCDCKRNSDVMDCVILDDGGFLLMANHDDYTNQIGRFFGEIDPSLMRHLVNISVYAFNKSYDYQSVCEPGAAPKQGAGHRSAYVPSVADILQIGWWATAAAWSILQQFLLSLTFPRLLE
T1 sequence (P54289 957-1103 partner limits assumed): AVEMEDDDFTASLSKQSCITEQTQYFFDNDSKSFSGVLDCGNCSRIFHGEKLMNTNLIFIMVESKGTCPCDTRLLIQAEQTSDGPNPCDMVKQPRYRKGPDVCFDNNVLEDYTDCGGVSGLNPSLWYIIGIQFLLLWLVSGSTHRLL
T1 sequence (P54284 whole entry partner): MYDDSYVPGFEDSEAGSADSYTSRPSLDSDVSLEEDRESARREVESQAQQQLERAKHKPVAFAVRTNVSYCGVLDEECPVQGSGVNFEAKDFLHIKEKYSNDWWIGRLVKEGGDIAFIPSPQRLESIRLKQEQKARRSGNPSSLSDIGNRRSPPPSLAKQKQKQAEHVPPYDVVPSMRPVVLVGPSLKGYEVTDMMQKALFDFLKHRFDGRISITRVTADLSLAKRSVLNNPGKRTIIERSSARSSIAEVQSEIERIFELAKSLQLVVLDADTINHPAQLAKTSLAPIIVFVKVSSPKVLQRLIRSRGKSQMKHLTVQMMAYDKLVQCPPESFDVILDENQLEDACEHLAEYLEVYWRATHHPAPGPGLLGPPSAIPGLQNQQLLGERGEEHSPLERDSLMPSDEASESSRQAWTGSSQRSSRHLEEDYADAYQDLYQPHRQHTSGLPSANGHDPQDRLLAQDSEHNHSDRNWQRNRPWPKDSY

inhibition at 1 µM	inhibition at 10 µM	SMILES
39%	83%	CC(C)C[C@H](NC(=O)N1CCCCCC1)C(=O)N[C@@H](Cc1ccc(OCc2ccccc2)cc1)C(=O)Nc1cccnc1 [Example 254, [S-(R*,R*)]-Azepane-1-carboxylic acid {1-[2-(4-benzyloxy-phenyl)-1-(pyridin-3-ylcarbamoyl)-ethylcarbamoyl]-3-methyl-butyl}-amide]
	17%	CC(C)C[C@H](NC(=O)N1CCCCCC1)C(=O)N[C@@H](Cc1ccc(OCc2ccccc2)cc1)C(=O)NCC1CCNCC1 [Example 262, [S-(R*,R*)]-Azepane-1-carboxylic acid (1-{-2-(4-benzyloxy-phenyl)-1-[(piperidin-4-ylmethyl)-carbamoyl]-ethylcarbamoyl]-3-methyl-butyl}-amide]

Same assay, conditions: IMR-32 cells, 5 μM nitrendipine, K+ depolarization

SMILES	IC50
CC(C)C[C@H](NC(=O)N1CCCCCC1)C(=O)N[C@@H](Cc1ccc(OCc2ccccc2)cc1)C(=O)Nc1cccnc1 [Example 254, [S-(R*,R*)]-Azepane-1-carboxylic acid {1-[2-(4-benzyloxy-phenyl)-1-(pyridin-3-ylcarbamoyl)-ethylcarbamoyl]-3-methyl-butyl}-amide]	1600 nM
CC(C)C[C@H](NC(=O)N1CCCCCC1)C(=O)N[C@@H](Cc1ccc(OCc2ccccc2)cc1)C(=O)NCCCO [Example 255, [S-(R*,R*)]-Azepane-1-carboxylic acid {1-[2-(4-benzyloxy-phenyl)-1-(3-hydroxy-propylcarbamoyl)-ethylcarbamoyl]-3-methyl-butyl}-amide]	4300 nM
CC(C)CC(NC(=O)N1CCCCCC1)C(=O)NC(Cc1ccc(OCc2ccccc2)cc1)C(=O)N1CCCC(CO)C1 (stereo not shown) [Example 256, Azepane-1-carboxylic acid {1-[1-(4-benzyloxy-benzyl)-2-(3-hydroxymethyl-piperidin-1-yl)-2-oxo-ethylcarbamoyl]-3-methyl-butyl}-amide]	1500 nM
CC(C)C[C@H](NC(=O)N1CCCCCC1)C(=O)N[C@@H](Cc1ccc(OCc2ccccc2)cc1)C(=O)NC1CCNC1 (stereo partly drawn) [Example 258, [S-(R*,R*)]-Azepane-1-carboxylic acid {1-[2-(4-benzyloxy-phenyl)-1-(pyrrolidin-3-ylcarbamoyl)-ethylcarbamoyl]-3-methyl-butyl}-amide]	3600 nM
CC(C)C[C@H](NC(=O)N1CCCCCC1)C(=O)N[C@@H](Cc1ccc(OCc2ccccc2)cc1)C(=O)N1CCCNCC1 [Example 259, [S-(R*,R*)]-Azepane-1-carboxylic acid {1-[2-(4-benzyloxy-phenyl)-1-(1,4]diazepane-1-carbonyl)-ethylcarbamoyl]-3-methyl-butyl}-amide]	2400 nM
CC(C)C[C@H](NC(=O)N1CCCCCC1)C(=O)N[C@@H](Cc1ccc(OCc2ccccc2)cc1)C(=O)NCC1CCNCC1 [Example 262, [S-(R*,R*)]-Azepane-1-carboxylic acid (1-{-2-(4-benzyloxy-phenyl)-1-[(piperidin-4-ylmethyl)-carbamoyl]-ethylcarbamoyl]-3-methyl-butyl}-amide]	51000 nM
CC(C)C[C@H](NC(=O)N1CCCCCC1)C(=O)N[C@@H](Cc1ccc(OCc2ccccc2)cc1)C(=O)NCc1ccccc1 [Example 263, [S-(R*,R*)]-Azepane-1-carboxylic acid {1-[1-benzylcarbamoyl-2-(4-benzyloxy-phenyl)-ethylcarbamoyl]-3-methyl-butyl}-amide]	1200 nM

Compounds with a lower IC50, results first:

IC50	SMILES
270 nM	CC(C)CC(NC(=O)N1CCCCCC1)C(=O)NC(Cc1ccc(OCc2ccccc2)cc1)C(=O)NCC1CCN(Cc2ccccc2)C1 (stereo not shown) [Example 250, Azepane-1-carboxylic acid (1-{2-(4-benzyloxy-phenyl)-1-[(1-benzyl-pyrrolidin-3-ylmethyl)-carbamoyl]-ethylcarbamoyl}-3-methyl-butyl)-amide]
740 nM	CC(C)C[C@H](NC(=O)N1CCCCCC1)C(=O)N[C@@H](Cc1ccc(OCc2ccccc2)cc1)C(=O)N(CCO)Cc1ccccc1 [Example 251, S-(R*,R*)]-Azepane-1-carboxylic acid {1-[1-[benzyl-(2-hydroxy-ethyl)-carbamoyl]-2-(4-benzyloxy-phenyl)-ethylcarbamoyl]-3-methyl-butyl}-amide]
280 nM	CC(C)C[C@H](NC(=O)N1CCCCCC1)C(=O)N[C@@H](Cc1ccc(OCc2ccccc2)cc1)C(=O)NCCNCc1ccccc1 [Example 252, [S-(R*,R*)]-Azepane-1-carboxylic acid {1-[1-(2-benzylamino-ethylcarbamoyl)-2-(4-benzyloxy-phenyl)-ethylcarbamoyl]-3-methyl-butyl}-amide]
